The subject of the data set is rodent lifetime carcinogenesis bioassay, tumor incidence TD50. The experiment in a line: chronic cancer bioassays in animals – CPDB, compiled studies (AID 1745844).

Among the data in PubChem BioAssay AID1745844 (Carcinogenic Potency Database (CPDB), 2022) are TD50 and carcinogen call values, retold here.

SMILES strings stand for the structures. Calls of active or inactive are those of the source. How the calls were made is not given here.

As usually defined, the TD50 is the 50% point of the dose-response relation for the toxic effect studied.

As for `C=CBr`, the TD50 by setting is: (rat, strain Sprague-Dawley, females, inhaled, site: Zymbal's gland, lesion: squamous-cell carcinoma, dosed 81 weeks, study length 103 weeks) 2240 mg/kg/day; (rat, strain Sprague-Dawley, females, inhaled, site: liver, lesion: hepatocellular carcinoma, dosed 81 weeks, study length 103 weeks) 749 mg/kg/day; (rat, strain Sprague-Dawley, females, inhaled, site: liver, lesion: neoplastic nodule, dosed 81 weeks, study length 103 weeks) 18.9 mg/kg/day; (rat, strain Sprague-Dawley, females, inhaled, site: liver, lesion: several types, types named in the paper, dosed 81 weeks, study length 103 weeks) 433 mg/kg/day; (rat, strain Sprague-Dawley, females, inhaled, site: several sites, sites named in the paper, lesion: angiosarcoma, dosed 81 weeks, study length 103 weeks) 19.2 mg/kg/day; (rat, strain Sprague-Dawley, males, inhaled, site: Zymbal's gland, lesion: papilloma, dosed 76 weeks, study length 103 weeks) 2760 mg/kg/day. Further, the TD50 runs as follows: (rat, strain Sprague-Dawley, males, inhaled, site: Zymbal's gland, lesion: squamous-cell carcinoma, dosed 76 weeks, study length 103 weeks) 409 mg/kg/day; (rat, strain Sprague-Dawley, males, inhaled, site: liver, lesion: hepatocellular carcinoma, dosed 76 weeks, study length 103 weeks) 387 mg/kg/day; (rat, strain Sprague-Dawley, males, inhaled, site: liver, lesion: several types, types named in the paper, dosed 76 weeks, study length 103 weeks) 303 mg/kg/day; (rat, strain Sprague-Dawley, males, inhaled, site: several sites, sites named in the paper, lesion: angiosarcoma, dosed 76 weeks, study length 103 weeks) 17.9 mg/kg/day.

With `CCNN`, the TD50 runs as follows: (mouse, strain Swiss albino, females, in drinking water, site: blood vessels, lesion: angioma, dosed 82 weeks, study length 82 weeks) 42.9 mg/kg/day; (mouse, strain Swiss albino, females, in drinking water, site: blood vessels, lesion: angiosarcoma, dosed 82 weeks, study length 82 weeks) 27.6 mg/kg/day; (mouse, strain Swiss albino, females, in drinking water, site: blood vessels, lesion: several types, types named in the paper, dosed 82 weeks, study length 82 weeks) 11.6 mg/kg/day; (mouse, strain Swiss albino, females, in drinking water, site: liver, lesion: angioma, dosed 82 weeks, study length 82 weeks) 42.9 mg/kg/day; (mouse, strain Swiss albino, females, in drinking water, site: liver, lesion: angiosarcoma, dosed 82 weeks, study length 82 weeks) 27.6 mg/kg/day; (mouse, strain Swiss albino, females, in drinking water, site: liver, lesion: several types, types named in the paper, dosed 82 weeks, study length 82 weeks) 13 mg/kg/day. The TD50 is 14 mg/kg/day (mouse, strain Swiss albino, females, in drinking water, site: lung, lesion: adenocarcinoma, dosed 82 weeks, study length 82 weeks); 5.62 mg/kg/day (mouse, strain Swiss albino, females, in drinking water, site: lung, lesion: adenoma, dosed 82 weeks, study length 82 weeks); 5.22 mg/kg/day (mouse, strain Swiss albino, females, in drinking water, site: lung, lesion: several types, types named in the paper, dosed 82 weeks, study length 82 weeks); 46.9 mg/kg/day (mouse, strain Swiss albino, males, in drinking water, site: blood vessels, lesion: angiosarcoma, dosed 72 weeks, study length 72 weeks); 38.6 mg/kg/day (mouse, strain Swiss albino, males, in drinking water, site: blood vessels, lesion: several types, types named in the paper, dosed 72 weeks, study length 72 weeks); 46.9 mg/kg/day (mouse, strain Swiss albino, males, in drinking water, site: liver, lesion: angiosarcoma, dosed 72 weeks, study length 72 weeks). For the same molecule, the TD50 by setting is: (mouse, strain Swiss albino, males, in drinking water, site: liver, lesion: several types, types named in the paper, dosed 72 weeks, study length 72 weeks) 48.1 mg/kg/day; (mouse, strain Swiss albino, males, in drinking water, site: lung, lesion: adenoma, dosed 72 weeks, study length 72 weeks) 7.82 mg/kg/day; (mouse, strain Swiss albino, males, in drinking water, site: lung, lesion: several types, types named in the paper, dosed 72 weeks, study length 72 weeks) 8.81 mg/kg/day.

Consider `Oc1ccc2c(c1)OCO2`, for which the TD50 is, setting by setting: (mouse, strain B6C3F1, females, in feed, site: forestomach, lesion: sarcoma, dosed 96 weeks, study length 96 weeks) 44800 mg/kg/day; (mouse, strain B6C3F1, females, in feed, site: forestomach, lesion: squamous-cell carcinoma, dosed 96 weeks, study length 96 weeks) 8330 mg/kg/day; (mouse, strain B6C3F1, females, in feed, site: liver, lesion: hyperplastic nodule, dosed 96 weeks, study length 96 weeks) 44800 mg/kg/day; (mouse, strain B6C3F1, males, in feed, site: forestomach, lesion: squamous-cell carcinoma, dosed 96 weeks, study length 96 weeks) 3070 mg/kg/day; (mouse, strain B6C3F1, males, in feed, site: lung, lesion: adenoma, dosed 96 weeks, study length 96 weeks) 41300 mg/kg/day; (mouse, strain B6C3F1, males, in feed, site: stomach, glandular, lesion: sarcoma, dosed 96 weeks, study length 96 weeks) 41300 mg/kg/day. Besides, the TD50 is 1090 mg/kg/day (rat, strain F344/DuCrj, females, in feed, site: forestomach, lesion: papilloma, dosed 104 weeks, study length 104 weeks); 6500 mg/kg/day (rat, strain F344/DuCrj, females, in feed, site: forestomach, lesion: squamous-cell carcinoma, dosed 104 weeks, study length 104 weeks); 1350 mg/kg/day (rat, strain F344/DuCrj, males, in feed, site: forestomach, lesion: papilloma, dosed 104 weeks, study length 104 weeks); 708 mg/kg/day (rat, strain F344/DuCrj, males, in feed, site: forestomach, lesion: several types, types named in the paper, dosed 60 weeks, study length 60 weeks); 3920 mg/kg/day (rat, strain F344/DuCrj, males, in feed, site: forestomach, lesion: squamous-cell carcinoma, dosed 60 weeks, study length 60 weeks); 1540 mg/kg/day (rat, strain F344/DuCrj, males, in feed, site: forestomach, lesion: squamous-cell carcinoma, dosed 104 weeks, study length 104 weeks). Further, the TD50 runs as follows: (rat, strain F344/DuCrj, males, in feed, site: forestomach, lesion: squamous-cell papilloma, dosed 60 weeks, study length 60 weeks) 909 mg/kg/day; (rat, strain F344/DuCrj, males, in feed, site: stomach, glandular, lesion: adenoma, dosed 104 weeks, study length 104 weeks) 16200 mg/kg/day.

`C=Cc1cccc(C)c1`: the carcinogen call reads like this: (mouse, strain B6C3F1, females, inhaled, site: any site (literature study), lesion: several types, types named in the paper, dosed 103 weeks, study length 104 weeks) “negative (inactive)”; (mouse, strain B6C3F1, males, inhaled, site: any site (literature study), lesion: several types, types named in the paper, dosed 103 weeks, study length 104 weeks) “negative (inactive)”; (rat, strain Fischer 344, males, inhaled, site: any site (literature study), lesion: several types, types named in the paper, dosed 103 weeks, study length 104 weeks) “negative (inactive)”. Also, the TD50 was 750 mg/kg/day (mouse, strain B6C3F1, females, inhaled, site: lung, lesion: alveolar/bronchiolar adenoma + alveolar/bronchiolar carcinoma, dosed 103 weeks, study length 104 weeks) and 312 mg/kg/day (inactive) (rat, strain Fischer 344, females, inhaled, site: any site (literature study), lesion: several types, types named in the paper, dosed 103 weeks, study length 104 weeks).

Turning to `C#C[C@]1(C(C)=O)CC[C@H]2[C@@H]3CCC4=C[C@@H](C(C)=O)CC[C@@H]4[C@H]3CC[C@@]21C` (tested in a mixture with another compound), the TD50 was 0.858 mg/kg/day (mouse, strain (C3H x RIII)F1 (MTV+), females, in feed, site: mammary tissue, wider than the gland, lesion: one or several types, types not named, dosed 104 weeks, study length 104 weeks) and 0.3 mg/kg/day (mouse, strain (C3H x RIII)F1 (MTV+), males, in feed, site: mammary tissue, wider than the gland, lesion: one or several types, types not named, dosed 104 weeks, study length 104 weeks).

With `CN=[N+](C)[O-]`, the TD50 is, setting by setting: (rat, strain Fischer 344, males, by gavage, site: Zymbal's gland, lesion: carcinoma, dosed 30 weeks, study length 65 weeks) 0.204 mg/kg/day; (rat, strain Fischer 344, males, by gavage, site: colon, lesion: malignant tumor, dosed 30 weeks, study length 65 weeks) 0.171 mg/kg/day; (rat, strain Fischer 344, males, by gavage, site: colon, lesion: one or several types, types not named, dosed 30 weeks, study length 65 weeks) 0.102 mg/kg/day; (rat, strain Fischer 344, males, by gavage, site: kidney, lesion: mesenchymal neoplasm, dosed 30 weeks, study length 65 weeks) 0.3 mg/kg/day; (rat, strain Fischer 344, males, in drinking water, site: colon, lesion: several types, types named in the paper, dosed 30 weeks, study length 100 weeks) 0.585 mg/kg/day; (rat, strain Fischer 344, males, in drinking water, site: kidney, lesion: several types, types named in the paper, dosed 30 weeks, study length 100 weeks) 0.388 mg/kg/day. For the same molecule, the TD50 is 0.982 mg/kg/day (rat, strain Fischer 344, males, in drinking water, site: liver, lesion: hemangiosarcoma, dosed 30 weeks, study length 100 weeks); 0.0677 mg/kg/day (rat, strain Fischer 344, males, in drinking water, site: liver, lesion: hepatocellular carcinoma, dosed 30 weeks, study length 100 weeks); 28.6 mg/kg/day (rat, strain Fischer 344, males, in drinking water, site: liver, lesion: neoplastic nodule, dosed 30 weeks, study length 100 weeks); 0.0302 mg/kg/day (rat, strain Fischer 344, males, in drinking water, site: liver, lesion: several types, types named in the paper, dosed 30 weeks, study length 100 weeks). Also, the carcinogen call (rat, strain Fischer 344, males, by gavage, site: liver, lesion: one or several types, types not named, dosed 30 weeks, study length 65 weeks) was “negative (inactive)”.

Regarding `CC(=O)OC[C@H]1O[C@@](COC(=O)C(C)C)(O[C@H]2O[C@H](COC(C)=O)[C@@H](OC(=O)C(C)C)[C@H](OC(=O)C(C)C)[C@H]2OC(=O)C(C)C)[C@@H](OC(=O)C(C)C)[C@@H]1OC(=O)C(C)C`, the carcinogen call (mouse, strain B6C3F1, females, in feed, site: any site (literature study), lesion: several types, types named in the paper, dosed 104 weeks, study length 104 weeks) is “negative (inactive)”; the carcinogen call (mouse, strain B6C3F1, males, in feed, site: any site (literature study), lesion: several types, types named in the paper, dosed 104 weeks, study length 104 weeks) is “negative (inactive)”; the carcinogen call (rat, strain Fischer 344, females, in feed, site: any site (literature study), lesion: several types, types named in the paper, dosed 104 weeks, study length 104 weeks) is “negative (inactive)”; the carcinogen call (rat, strain Fischer 344, males, in feed, site: any site (literature study), lesion: several types, types named in the paper, dosed 52 weeks, study length 52 weeks) was “negative (inactive)”; the carcinogen call (rat, strain Fischer 344, males, in feed, site: any site (literature study), lesion: several types, types named in the paper, dosed 104 weeks, study length 104 weeks) was “negative (inactive)”; the carcinogen call (rat, strain Fischer 344, males, in feed, site: liver, lesion: one or several types, types not named, dosed 52 weeks, study length 52 weeks) is “negative (inactive)”. The TD50 runs as follows: (rat, strain Fischer 344, females, in feed, site: any site (literature study), lesion: several types, types named in the paper, dosed 52 weeks, study length 52 weeks) 3250 mg/kg/day (inactive); (rat, strain Fischer 344, females, in feed, site: liver, lesion: hepatocellular adenoma, dosed 52 weeks, study length 52 weeks) 3250 mg/kg/day (inactive).
